Laboratory results taken from US11767332B2, “Glucose-sensitive albumin-binding derivatives” (Novo Nordisk A/S, priority 2017, dated 2023).

Key:
[1] = Alizarin red (ARS) assay, glucose binding affinity; details: 20 mM phosphate buffer pH 7.4, room temperature
Description: (§1) The alizarin-red binding assay is a colorimetric assay used to determine the inhibition affinity of boronate compounds to glucose. The assay is based on a colour shift of alizarin-red upon binding to boronate, which shift can be followed by change in absorbance in the 330-340 nm region.
(§2) After 5 minutes of centrifugation at 4000 rpm, the plate is placed in a multi-well spectrometer (SpectraMax, Molecular Devices) for absorption detection.
(§3) The analysis is carried out at room temperature with absorption readings at 330, 340 and 520 nm, respectively. Data obtained for absorption versus concentration of boronate is then fitted (Prism 7, GraphPad) with a sigmoidal function to obtain the Kd value of boronate and ARS.
(§4) Upon complete dissolution of the compound, 200 μM of Alizarin red (ARS) is added to the solution. The ARS-boronate solution is then aliquoted into a 96 multiwell plate (black, flat and clear bottom) 1:1 with appropriate carbohydrate. In particular, D-glucose and L-lactate solutions are prepared in a 20 mM phosphate buffer pH 7.4 at these concentrations respectively: 1000, 500, 250, 100, 50, 25, 10, 5, 2.5, 1, 0.25, 0.1 mM and 2500, 1000, 500, 100, 50, 10, 5, 1, 0.5, 0.1, 0.05, 0.01 mM. The plate with ARS-boronate mixed with carbohydrate is incubated 20 minutes at room temperature. After 5 minutes of centrifugation at 4000 rpm the plate is placed in a multiwell spectrometer (Spectra Max, Molecular Devices) for absorption detection.
(§5) The analysis is carried out at room temperature with absorption readings at 330, 340 and 520 nm, respectively.

[2] = Alizarin red (ARS) assay, lactate binding affinity; details: 20 mM phosphate buffer pH 7.4, room temperature, N.D. = not detectable
Description: as §1, §2, §3, §4, §5

SMILES | Kd [1] | Kd [2]
O=C(O)c1cc(CNC(=O)c2ccc(B(O)O)cc2F)cc(CNC(=O)c2ccc(B(O)O)cc2F)c1 [Example 1, 3,5-Bis((4-borono-2-fluorobenzamido)methyl)benzoic acid] | 3.1 mM | 8.6 mM
O=C(O)c1cc(CNC(=O)c2ccc(B(O)O)c(F)c2)cc(CNC(=O)c2ccc(B(O)O)c(F)c2)c1 [Example 2, 3,5-Bis((4-borono-3-fluorobenzamido)methyl)benzoic acid] | 3.4 mM | 5.4 mM
O=C(O)CN(CCNC(=O)c1ccc2c(c1F)B(O)OC2)C(=O)c1ccc2c(c1F)B(O)OC2 [Example 5, N-(7-Fluoro-1-hydroxy-1,3-dihydrobenzo[c][1,2]oxaborole-6-carbonyl)-N-(2-(7-fluoro-1-hydroxy-1,3-dihydrobenzo[c][1,2]oxaborole-6-carboxamido)ethyl)glycine] | 0.8 mM | 40 mM
O=C(O)c1cc(CNC(=O)c2ccc3c(c2F)B(O)OC3)cc(CNC(=O)c2ccc3c(c2F)B(O)OC3)c1 [Example 6, 3,5-Bis((7-fluoro-1-hydroxy-1,3-dihydrobenzo[c][1,2]oxaborole-6-carboxamido)methyl) benzoic acid] | 1.1 mM | 
O=C(O)CN(CCNC(=O)c1cc2c(cc1F)COB2O)C(=O)c1cc2c(cc1F)COB2O [Example 7, N-(5-Fluoro-1-hydroxy-1,3-dihydrobenzo[c][1,2]oxaborole-6-carbonyl)-N-(2-(5-fluoro-1-hydroxy-1,3-dihydrobenzo[c][1,2]oxaborole-6-carboxamido)ethyl)glycine] | 1.5 mM | 24.1 mM
O=C(O)CN(CCNC(=O)c1cc(F)c2c(c1)B(O)OC2)C(=O)c1cc(F)c2c(c1)B(O)OC2 [Example 8, N-(4-Fluoro-1-hydroxy-1,3-dihydrobenzo[c][1,2]oxaborole-6-carbonyl)-N-(2-(4-fluoro-1-hydroxy-1,3-dihydrobenzo[c][1,2]oxaborole-6-carboxamido)ethyl)glycine] | 2.7 mM | 34 mM
O=C(O)c1cc(B(O)O)cc(C(=O)c2cc(B(O)O)c(F)cc2F)c1 [Example 13, 3-Borono-5-(5-borono-2,4-difluorobenzoyl)benzoic acid] | 0.3 mM | 4 mM
O=C(NCCCC[C@H](NC(=O)c1cc2c(cc1F)B(O)OC2)C(=O)O)c1ccc(B(O)O)cc1F [Example 14, N^6-(4-Borono-2-fluorobenzoyl)-N^2-(6-fluoro-1-hydroxy-1,3-dihydrobenzo[c][1,2]oxaborole-5-carbonyl)-L-lysine] | 3.2 mM | 16 mM
O=C(NC[C@H](NC(=O)c1ccc2c(c1F)B(O)OC2)C(=O)O)c1ccc2c(c1F)B(O)OC2 [Example 15, (S)-2,3-Bis(7-fluoro-1-hydroxy-1,3-dihydrobenzo[c][1,2]oxaborole-6-carboxamido)propanoic acid] | 0.5 mM | 10 mM
O=C(O)CNC(=O)c1cc(B(O)O)cc(C(F)(F)c2cc(B(O)O)cc(C(F)(F)F)c2)c1 [Example 18, (3-Borono-5-((3-borono-5-(trifluoromethyl)phenyl)difluoromethyl)benzoyl)glycine] | 0.4 mM | 13 mM
O=C(O)CNC(=O)c1cc(B(O)O)cc(C(=O)c2cc(B(O)O)cc(C(F)(F)F)c2)c1 [Example 19, (3-Borono-5-(3-borono-5-(trifluoromethyl)benzoyl)benzoyl)glycine] | 1.5 mM | 17 mM
O=C(O)CCC(=O)N1C[C@H](NC(=O)c2ccc3c(c2F)B(O)OC3)[C@@H](NC(=O)c2ccc3c(c2F)B(O)OC3)C1 [Example 21, 4-((3S,4S)-3,4-Bis(7-fluoro-1-hydroxy-1,3-dihydrobenzo[c][1,2]oxaborole-6-carboxamido)pyrrolidin-1-yl)-4-oxobutanoic acid] | 2.6 mM | 
O=C(O)CCC(=O)N1C[C@@H](NC(=O)c2cc3c(c(C(F)(F)F)c2)COB3O)[C@H](NC(=O)c2cc3c(c(C(F)(F)F)c2)COB3O)C1 [Example 29, 4-[(3R,4R)-3,4-bis[[1-hydroxy-4-(trifluoromethyl)-3H-2,1-benzoxaborole-6-carbonyl]amino]pyrrolidin-1-yl]-4-oxobutanoic acid] | 2.3 mM | 
O=C(O)CN=S(=O)(c1cc2c(c(C(F)(F)F)c1)COB2O)c1cc2c(c(C(F)(F)F)c1)COB2O [Example 38, 2-((Bis(1-hydroxy-4-(trifluoromethyl)-1,3-dihydrobenzo[c][1,2]oxaborol-6-yl)(oxo)-λ6-sulfanylidene)amino)acetic acid] | 3.7 mM | 
O=C(NC[C@H](NC(=O)c1ccc2c(c1)B(O)OC2)C(=O)O)c1ccc2c(c1)B(O)OC2 [Example 40, (S)-2,3-Bis(1-hydroxy-1,3-dihydrobenzo[c][1,2]oxaborole-6-carboxamido)propanoic acid] | 2 mM | 

Further compounds by falling Kd [1], results first:

Kd [1] | Kd [2] | SMILES
4.2 mM | 37 mM | O=C(NC[C@H](NC(=O)c1cc2c(cc1F)COB2O)C(=O)O)c1cc2c(cc1F)COB2O [Example 16, (S)-2,3-Bis(5-fluoro-1-hydroxy-1,3-dihydrobenzo[c][1,2]oxaborole-6-carboxamido)propanoic acid]
3.2 mM |  | O=C(NCCCC[C@H](NC(=O)c1cc2c(cc1F)B(O)OC2)C(=O)O)c1cc2c(cc1F)B(O)OC2 [Example 10, N^2,N^6-Bis(6-fluoro-1-hydroxy-1,3-dihydrobenzo[c][1,2]oxaborole-5-carbonyl)-L-lysine]
2.6 mM | 6.5 mM | O=C(NCC[C@H](NC(=O)c1ccc(B(O)O)c(F)c1)C(=O)O)c1ccc(B(O)O)c(F)c1 [Example 4, (S)-2,4-bis(4-borono-3-fluorobenzamido)butanoic acid]
2.6 mM | 67.9 mM | O=C(O)CN(CCNC(=O)c1cc2c(cc1F)B(O)OC2)C(=O)c1cc2c(cc1F)B(O)OC2 [Example 9, N-(6-Fluoro-1-hydroxy-1,3-dihydrobenzo[c][1,2]oxaborole-5-carbonyl)-N-(2-(6-fluoro-1-hydroxy-1,3-dihydrobenzo[c][1,2]oxaborole-5-carboxamido)ethyl)glycine]
1.8 mM | 17 mM | O=C(O)c1cc(B(O)O)c(F)c(S(=O)(=O)c2ccc(F)c(B(O)O)c2)c1 [Example 11, 3-Borono-5-((3-borono-4-fluorophenyl)sulfonyl)-4-fluorobenzoic acid]
1.6 mM |  | O=C(NC[C@H](NC(=O)c1cc(F)c2c(c1)B(O)OC2)C(=O)O)c1cc(F)c2c(c1)B(O)OC2 [Example 17, (S)-2,3-Bis(4-fluoro-1-hydroxy-1,3-dihydrobenzo[c][1,2]oxaborole-6-carboxamido) propanoic acid]
1.1 mM | 18 mM | O=C(O)c1cc(B(O)O)cc(C(=O)c2cc(F)cc(B(O)O)c2)c1 [Example 12, 3-Borono-5-(3-borono-5-fluorobenzoyl)benzoic acid]
1.1 mM |  | O=C(O)CN(CCNC(=O)c1cc2c(c(S(=O)(=O)C(F)(F)F)c1)COB2O)C(=O)c1cc2c(c(S(=O)(=O)C(F)(F)F)c1)COB2O [Example 42, N-(1-Hydroxy-4-((trifluoromethyl)sulfonyl)-1,3-dihydrobenzo[c][1,2]oxaborole-6-carbonyl)-N-(2-(1-hydroxy-4-((trifluoromethyl)sulfonyl)-1,3-dihydrobenzo-[c][1,2]oxaborole-6-carboxamido)ethyl)glycine]
0.3 mM |  | O=C(O)CNC(=O)c1cc(B(O)O)cc(S(=O)(=O)c2cc(B(O)O)cc(S(F)(F)(F)(F)F)c2)c1 [Example 28, (3-Borono-5-((3-borono-5-(pentafluoro-λ^6-sulfanyl)phenyl)sulfonyl)benzoyl)glycine]
